# Reference: PubChem BioAssay (NCI)
#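 The concentration for 50% growth inhibition is given as GI50. Definition used: TGI = concentration required for complete inhibition of growth.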
# Key:
# Test in all cases: NCI tumour cell line growth inhibition, 384-well format
# 786-0 renal = test system: 786-0 renal
# A498 renal = test system: A498 renal
# A549 NSCLC = test system: A549 NSCLC
# ACHN renal = test system: ACHN renal
# BT-549 breast = test system: BT-549 breast
# CAKI-1 renal = test system: CAKI-1 renal
# CCRF-CEM leukemia = test system: CCRF-CEM leukemia
# COLO 205 colon = test system: COLO 205 colon
# DU-145 prostate = test system: DU-145 prostate
# EKVX NSCLC = test system: EKVX NSCLC
# HCC-2998 colon = test system: HCC-2998 colon
# HCT-116 colon = test system: HCT-116 colon
# HCT-15 colon = test system: HCT-15 colon
# HL-60(TB) leukemia = test system: HL-60(TB) leukemia
# HOP-62 NSCLC = test system: HOP-62 NSCLC
# HOP-92 NSCLC = test system: HOP-92 NSCLC
# HS 578T breast = test system: HS 578T breast
# HT29 colon = test system: HT29 colon
# IGROV1 ovarian = test system: IGROV1 ovarian
# K-562 leukemia = test system: K-562 leukemia
# KM12 colon = test system: KM12 colon
# LOX IMVI melanoma = test system: LOX IMVI melanoma
# M14 melanoma = test system: M14 melanoma
# MALME-3M melanoma = test system: MALME-3M melanoma
# MCF7 breast = test system: MCF7 breast
# MDA-MB-231 breast = test system: MDA-MB-231 breast
# MDA-MB-435 melanoma = test system: MDA-MB-435 melanoma
# MDA-MB-468 breast = test system: MDA-MB-468 breast
# MOLT-4 leukemia = test system: MOLT-4 leukemia
# NCI-H226 lung = test system: NCI-H226 lung
# NCI-H23 lung = test system: NCI-H23 lung
# NCI-H322M lung = test system: NCI-H322M lung
# NCI-H460 NSCLC = test system: NCI-H460 NSCLC
# NCI-H522 lung = test system: NCI-H522 lung
# NCI/ADR-RES ovarian = test system: NCI/ADR-RES ovarian
# OVCAR-3 ovarian = test system: OVCAR-3 ovarian
# OVCAR-4 ovarian = test system: OVCAR-4 ovarian
# OVCAR-8 ovarian = test system: OVCAR-8 ovarian
# PC-3 prostate = test system: PC-3 prostate
# RPMI-8226 leukemia = test system: RPMI-8226 leukemia
# RXF 393 renal = test system: RXF 393 renal
# SF-268 CNS = test system: SF-268 CNS
# SF-295 CNS = test system: SF-295 CNS
# SF-539 CNS = test system: SF-539 CNS
# SK-MEL-28 melanoma = test system: SK-MEL-28 melanoma
# SK-MEL-5 melanoma = test system: SK-MEL-5 melanoma
# SK-OV-3 ovarian = test system: SK-OV-3 ovarian
# SN12C renal = test system: SN12C renal
# SNB-19 CNS = test system: SNB-19 CNS
# SNB-75 CNS = test system: SNB-75 CNS
# SR leukemia = test system: SR leukemia
# SW-620 colon = test system: SW-620 colon
# T-47D breast = test system: T-47D breast
# TK-10 renal = test system: TK-10 renal
# U251 glioblastoma = test system: U251 glioblastoma
# UACC-257 melanoma = test system: UACC-257 melanoma
# UACC-62 melanoma = test system: UACC-62 melanoma
# UO-31 renal = test system: UO-31 renal
compound,measurement,setting,value
C=CC(=O)Nc1cccc(Nc2nc(Nc3ccc(OCCOC)cc3)ncc2F)c1,GI50,786-0 renal,1.68 µM
same,TGI,786-0 renal,6.51 µM
same,GI50,A498 renal,0.493 µM
same,TGI,A498 renal,1.93 µM
same,GI50,A549 NSCLC,2.88 µM
same,TGI,A549 NSCLC,11.2 µM
same,GI50,ACHN renal,1.01 µM
same,TGI,ACHN renal,3.51 µM
same,GI50,BT-549 breast,0.802 µM
same,TGI,BT-549 breast,2.84 µM
same,GI50,CAKI-1 renal,0.602 µM
same,TGI,CAKI-1 renal,2.08 µM
same,GI50,CCRF-CEM leukemia,1.62 µM
same,TGI,CCRF-CEM leukemia,3.39 µM
same,GI50,COLO 205 colon,5.33 µM
same,TGI,COLO 205 colon,16.7 µM
same,GI50,DU-145 prostate,2.21 µM
same,TGI,DU-145 prostate,13.5 µM
same,GI50,EKVX NSCLC,2.06 µM
same,TGI,EKVX NSCLC,9.06 µM
same,GI50,HCC-2998 colon,2.55 µM
same,TGI,HCC-2998 colon,13.7 µM
same,GI50,HCT-116 colon,2.5 µM
same,TGI,HCT-116 colon,12.7 µM
same,GI50,HCT-15 colon,1.97 µM
same,TGI,HCT-15 colon,12.9 µM
same,GI50,HL-60(TB) leukemia,1.21 µM
same,TGI,HL-60(TB) leukemia,2.64 µM
same,GI50,HOP-62 NSCLC,2.9 µM
same,TGI,HOP-62 NSCLC,11.1 µM
same,GI50,HOP-92 NSCLC,1.82 µM
same,TGI,HOP-92 NSCLC,9.64 µM
same,GI50,HS 578T breast,1.05 µM
same,TGI,HS 578T breast,2.85 µM
same,GI50,HT29 colon,2.98 µM
same,TGI,HT29 colon,11.6 µM
same,GI50,IGROV1 ovarian,1 µM
same,TGI,IGROV1 ovarian,2.28 µM
same,GI50,K-562 leukemia,3.73 µM
same,TGI,K-562 leukemia,13.6 µM
same,GI50,KM12 colon,3.53 µM
same,TGI,KM12 colon,14.3 µM
same,GI50,LOX IMVI melanoma,2.19 µM
same,TGI,LOX IMVI melanoma,6.05 µM
same,GI50,M14 melanoma,1.71 µM
same,TGI,M14 melanoma,14.7 µM
same,GI50,MALME-3M melanoma,3.64 µM
same,TGI,MALME-3M melanoma,16.8 µM
same,GI50,MCF7 breast,3.1 µM
same,TGI,MCF7 breast,14.8 µM
same,GI50,MDA-MB-231 breast,2.3 µM
same,TGI,MDA-MB-231 breast,14.7 µM
same,GI50,MDA-MB-435 melanoma,5.33 µM
same,TGI,MDA-MB-435 melanoma,17.6 µM
same,GI50,MDA-MB-468 breast,0.562 µM
same,TGI,MDA-MB-468 breast,1.76 µM
same,GI50,MOLT-4 leukemia,1.47 µM
same,TGI,MOLT-4 leukemia,2.84 µM
same,GI50,NCI-H226 lung,1 µM
same,TGI,NCI-H226 lung,5.79 µM
same,GI50,NCI-H23 lung,2.42 µM
same,TGI,NCI-H23 lung,12.9 µM
same,GI50,NCI-H322M lung,1.63 µM
same,TGI,NCI-H322M lung,8.82 µM
same,GI50,NCI-H460 NSCLC,2.02 µM
same,TGI,NCI-H460 NSCLC,10.3 µM
same,GI50,NCI-H522 lung,1.48 µM
same,TGI,NCI-H522 lung,4.37 µM
same,GI50,NCI/ADR-RES ovarian,2.44 µM
same,TGI,NCI/ADR-RES ovarian,6.32 µM
same,GI50,OVCAR-3 ovarian,1.22 µM
same,TGI,OVCAR-3 ovarian,4.74 µM
same,GI50,OVCAR-4 ovarian,10.3 µM
same,TGI,OVCAR-4 ovarian,22.1 µM
same,GI50,OVCAR-8 ovarian,2.51 µM
same,TGI,OVCAR-8 ovarian,8.72 µM
same,GI50,PC-3 prostate,2.81 µM
same,TGI,PC-3 prostate,12.6 µM
same,GI50,RPMI-8226 leukemia,1.01 µM
same,TGI,RPMI-8226 leukemia,2.99 µM
same,GI50,RXF 393 renal,0.867 µM
same,TGI,RXF 393 renal,3.26 µM
same,GI50,SF-268 CNS,2.34 µM
same,TGI,SF-268 CNS,10.5 µM
same,GI50,SF-295 CNS,4.9 µM
same,TGI,SF-295 CNS,17.1 µM
same,GI50,SF-539 CNS,1.48 µM
same,TGI,SF-539 CNS,3.26 µM
same,GI50,SK-MEL-28 melanoma,9.82 µM
same,TGI,SK-MEL-28 melanoma,21.6 µM
same,GI50,SK-MEL-5 melanoma,4.78 µM
same,TGI,SK-MEL-5 melanoma,18 µM
same,GI50,SK-OV-3 ovarian,0.755 µM
same,TGI,SK-OV-3 ovarian,3.02 µM
same,GI50,SN12C renal,1.28 µM
same,TGI,SN12C renal,4.07 µM
same,GI50,SNB-19 CNS,4.01 µM
same,TGI,SNB-19 CNS,14.6 µM
same,GI50,SNB-75 CNS,1.1 µM
same,TGI,SNB-75 CNS,2.82 µM
same,GI50,SR leukemia,0.933 µM
same,TGI,SR leukemia,2.66 µM
same,GI50,SW-620 colon,1.84 µM
same,TGI,SW-620 colon,4.16 µM
same,GI50,T-47D breast,2.49 µM
same,TGI,T-47D breast,13.9 µM
same,GI50,TK-10 renal,1.31 µM
same,TGI,TK-10 renal,3.09 µM
same,GI50,U251 glioblastoma,2.86 µM
same,TGI,U251 glioblastoma,13.1 µM
same,GI50,UACC-257 melanoma,6.67 µM
same,TGI,UACC-257 melanoma,19.3 µM
same,GI50,UACC-62 melanoma,1.52 µM
same,TGI,UACC-62 melanoma,12.8 µM
same,GI50,UO-31 renal,1.17 µM
same,TGI,UO-31 renal,3.39 µM
